What was measured:
Assay in all cases: relative viability (nuclei count vs DMSO), 5 days (fraction); higher = more cells survive
TGX 221 + Pictilisib = compound: CC1=CN2C(=O)C=C(N=C2C(=C1)C(C)NC3=CC=CC=C3)N4CCOCC4 [TGX 221] + CS(=O)(=O)N1CCN(Cc2cc3nc(-c4cccc5[nH]ncc45)nc(N4CCOCC4)c3s2)CC1 [Pictilisib] (partner 1 µM)
Procedure, shortened: (§1)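 Cells from lung cancer lines were seeded into 1536-well plates and, one day later, dosed by pin tool. Treatments were either a single drug or a fixed dose of an anchor drug with five library-drug doses (not always all listed) in √10 steps. After 5 days, nuclei were stained in a one-step fixation (final 0.05% Triton X-100, 1% formaldehyde, 1 ug/ml Hoechst) and counted on 4× images, and relative viability is the treated-to-vehicle nuclei ratio, as the median of duplicate plates.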

TGX 221 + Luminespib = compound: CC1=CN2C(=O)C=C(N=C2C(=C1)C(C)NC3=CC=CC=C3)N4CCOCC4 [TGX 221] + CCNC(=O)c1noc(-c2cc(C(C)C)c(O)cc2O)c1-c1ccc(CN2CCOCC2)cc1 [Luminespib] (partner 0.01 µM)
Procedure, shortened: as §1

[1] = compound: C1=CC=C(C(=C1)C2=CC=C(C=C2)C3=CSC4=C3C(=C(C(=O)N4)C#N)O)O + CC1(C)CCC(c2ccc(Cl)cc2)=C(CN2CCN(c3ccc(C(=O)NS(=O)(=O)c4ccc(N[C@H](CCN5CCOCC5)CSc5ccccc5)c(S(=O)(=O)C(F)(F)F)c4)cc3)CC2)C1 [Navitoclax] (partner 0.5 µM)
Procedure, shortened: as §1

Cell Line	relative viability (TGX 221 + Pictilisib; first compound 0.08 µM)	relative viability (TGX 221 + Pictilisib; first compound 0.253 µM)	relative viability (TGX 221 + Pictilisib; first compound 0.8 µM)	relative viability (TGX 221 + Pictilisib; first compound 2.53 µM)	relative viability (TGX 221 + Pictilisib; first compound 8 µM)	relative viability (TGX 221 + Luminespib; first compound 0.08 µM)	relative viability (TGX 221 + Luminespib; first compound 0.253 µM)	relative viability (TGX 221 + Luminespib; first compound 0.8 µM)	relative viability (TGX 221 + Luminespib; first compound 2.53 µM)	relative viability (TGX 221 + Luminespib; first compound 8 µM)	relative viability ([1]; first compound 0.08 µM)	relative viability ([1]; first compound 0.253 µM)	relative viability ([1]; first compound 0.8 µM)	relative viability ([1]; first compound 2.53 µM)	relative viability ([1]; first compound 8 µM)
LCLC-97TM1	0.197	0.196	0.165	0.164	0.188	0.732	0.63	0.821	0.602	0.834	0.379	0.719	0.514	0.393	0.453
NCI-H1734	0.452	0.41	0.435	0.377	0.456	0.232	0.178	0.202	0.17	0.18	0.793	0.979	0.886	0.972	0.492
NCI-H661	0.388	0.464	0.403	0.323	0.355	0.906	0.919	0.899	0.956	0.939	–	–	–	–	–
SK-LU-1	0.601	0.536	0.576	0.553	0.568	0.189	0.191	0.201	0.205	0.181	0.891	0.799	0.946	0.898	0.742
LC-2-ad	0.453	–	0.444	0.491	0.473	0.957	0.941	1.18	1.01	0.907	0.464	0.382	0.687	0.421	0.361
NCI-H1355	0.444	0.437	0.426	0.362	0.365	0.713	0.59	0.674	0.588	0.621	1.1	1.02	0.935	0.957	0.777
NCI-H1793	0.274	0.303	0.317	0.413	0.291	0.198	0.265	0.174	0.127	0.155	0.406	0.753	0.41	0.443	0.359
H3255	0.466	0.445	0.45	0.492	0.539	0.784	0.937	0.918	0.981	0.887	0.534	0.431	0.53	0.602	0.444
NCI-H2342	–	–	–	–	–	0.919	0.652	0.584	0.544	0.607	–	–	–	–	–
NCI-H838	0.427	0.364	0.425	0.495	0.404	0.219	0.335	0.296	0.344	0.266	1.16	1.07	1.22	1.12	0.979
NCI-H727	0.455	0.464	0.402	0.43	0.356	0.345	0.315	0.303	0.257	0.363	0.426	0.478	0.48	0.409	0.479
UMC-11	0.742	0.783	0.787	0.723	0.831	1.03	0.957	1.03	1.04	1.09	0.321	0.301	0.321	0.314	0.318
CAL-12T	–	0.415	0.376	–	0.519	0.644	0.206	0.244	0.295	0.257	–	1.23	1.22	1.45	1.06
NCI-H1755	0.412	0.381	0.406	0.372	0.425	0.441	0.65	0.33	0.394	0.258	1.03	1.13	0.98	1.08	0.78
NCI-H1651	0.501	0.481	0.584	0.578	0.465	0.828	0.653	0.741	0.592	0.568	1.07	0.941	1.05	1.1	0.642
NCI-H2170	0.312	0.288	0.325	0.376	0.357	0.67	0.638	0.541	0.593	0.639	0.616	0.683	0.601	0.561	0.465
NCI-H1915	0.892	0.895	1	0.805	0.949	0.726	0.747	0.745	0.757	0.725	0.811	0.769	0.83	0.826	0.771
EPLC-272H	0.259	0.295	0.369	–	0.339	0.346	0.419	0.388	0.28	0.177	–	1.11	1.17	1.12	0.744
NCI-H2087	0.989	0.966	0.883	0.811	0.87	0.118	0.16	0.151	0.15	0.166	1.02	1.05	1.1	1.15	0.994
A-427	0.613	0.7	0.679	0.676	0.676	0.892	0.82	0.863	0.843	0.861	0.999	0.951	1.01	0.957	1.02
NCI-H460	0.339	0.363	0.23	0.312	0.378	0.0366	0.029	0.0351	0.04	0.028	–	0.414	1.43	1.31	0.271
EBC-1	0.331	0.366	0.369	0.291	0.304	–	–	–	–	–	0.353	0.371	0.425	0.37	0.348
NCI-H23	0.518	0.465	0.446	0.439	0.451	0.196	0.225	0.217	0.21	0.208	0.883	0.746	1	0.754	0.468

Reference: the supplement of paper PMC10307832
